Laboratory results as given in US20060069132A1, “Azolecarboxamide herbicides” (priority 2004, published 2006).

Key:
kochia = experiment: Test C pre-/postemergence herbicide test; format: in vivo, Kochia scoparia
Method in brief: (§1)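 Emerged plants at the 1- to 4-leaf stage (2–18 cm), or freshly planted seeds, received test chemicals in a non-phytotoxic solvent mixture with surfactant. Response was visually scored against controls after 12 to 14 days in the greenhouse, on a 0 (no effect) to 100 (complete control) scale.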

ducksalad = experiment: Test C flooded paddy test; format: in vivo, Heteranthera limosa; details: for Plant response rating, Ducksalad: 500 g ai/ha, visual rating after 12 to 14 days
lambsquarters = experiment: Test C pre-/postemergence herbicide test; format: in vivo, Chenopodium album
Method in brief: as §1

morningglory = experiment: Test C pre-/postemergence herbicide test; format: in vivo, Ipomoea coccinea; design: key to Plant response rating, Morningglory: 0 = no effect, 100 = complete control
Method in brief: as §1

cocklebur = experiment: Test C pre-/postemergence herbicide test; format: in vivo, Xanthium strumarium
Method in brief: as §1

common ragweed = experiment: Test C pre-/postemergence herbicide test; format: in vivo, Ambrosia elatior; design: key to Plant response rating, Ragweed: 0 = no effect, 100 = complete control
Method in brief: as §1

[1] = test system: smallflower umbrella sedge; experiment: Test C flooded paddy test; format: in vivo, Cyperus difformis; details: for Plant response rating, Sedge, Umbrella: 500 g ai/ha, visual rating after 12 to 14 days
[2] = 62 g ai/ha, preemergence, scale 0 to 100
[3] = 250 g ai/ha, scale 0-100, preemergence
[4] = 500 g ai/ha, scale 0 to 100 (0 no effect, 100 complete control), visual, 12 to 14 days, preemergence
[5] = 125 g ai/ha, scale 0 to 100 (0 no effect, 100 complete control)
[6] = 250 g ai/ha, scale of 0 to 100, 0 is no effect, 100 is complete control
[7] = scale 0 to 100 (0 no effect, 100 complete control)
[8] = Postemergence, 250 g ai/ha, scale 0 to 100, 0 no effect, 100 complete control
[9] = postemergence, 125 g ai/ha, scale 0 to 100
[10] = postemergence, 62 g ai/ha, scale 0 to 100
[11] = 125 g ai/ha, scale 0 (no effect) to 100 (complete control), visual, 12 to 14 days, preemergence

Compound | Plant response rating, Kochia (kochia; [2]) | Plant response rating, Kochia (kochia; [3]) | Plant response rating, Kochia (kochia; [4]) | Ducksalad plant response rating (ducksalad; 62 g ai/ha, scale 0 to 100) | Ducksalad plant response rating (ducksalad; [5]) | Ducksalad plant response rating (ducksalad; [6]) | Plant response rating, Ducksalad (ducksalad; [7]) | Plant response rating, Lambsquarters (lambsquarters; [2]) | Plant response rating, Lambsquarters (lambsquarters; [3]) | Plant response rating, Lambsquarters (lambsquarters; [4]) | Plant response rating, Morningglory (morningglory; [2]) | Plant response rating, Morningglory (morningglory; [3]) | Plant response rating, Morningglory (morningglory; [4]) | Plant response rating, Cocklebur (cocklebur; [2]) | Plant response rating, Cocklebur (cocklebur; [3]) | Plant response rating, Ragweed (common ragweed; [2]) | Sedge, Umbrella plant response rating ([1]; 62 g ai/ha, scale 0 to 100) | Sedge, Umbrella plant response rating [1, 5] | Sedge, Umbrella plant response rating [1, 6] | Plant response rating, Sedge, Umbrella [1, 7] | further results
C=CCNC(=O)c1cccc(NC(=O)c2nn(C(C)C)nc2CC)c1 [Compound 382] | 0 | 95 | 100 | 25 | 65 | 80 | 85 | 90 | 100 | 100 | 0 | 65 | 100 | 0 | 20 | 20 | 75 | 80 | 85 | 90 | Plant response rating (0 = no effect, 100 = complete control), Kochia (kochia; 125 g ai/ha, preemergence): 20; Plant response rating (0 = no effect, 100 = complete control), Lambsquarters (lambsquarters; 125 g ai/ha, preemergence): 100; Plant response rating (0 = no effect, 100 = complete control), Morningglory (morningglory; 125 g ai/ha, preemergence): 25; Plant response rating (0 = no effect, 100 = complete control), Cocklebur (cocklebur; 125 g ai/ha, preemergence): 15; Plant response rating, Cocklebur (cocklebur; [4]): 45; Plant response rating (0 = no effect, 100 = complete control), Ragweed (common ragweed; 125 g ai/ha, preemergence): 65; Plant response rating, Ragweed (common ragweed; [3]): 90; Plant response rating, Ragweed (common ragweed; [4]): 100
CCOC(=O)c1cccc(NC(=O)c2cc(C3(C)CC3)nn2CC)c1 [Compound 295] | – | – | – | 0 | 0 | 25 | 30 | – | – | – | – | – | – | – | – | – | 80 | 80 | 80 | 80 | Plant response rating, Kochia (kochia; [8]): 90; Plant response rating, Kochia (kochia; [9]): 85; Plant response rating, Kochia (kochia; [10]): 80; Plant response rating, Lambsquarters (lambsquarters; [8]): 50; Plant response rating, Lambsquarters (lambsquarters; [9]): 5; Plant response rating, Lambsquarters (lambsquarters; [10]): 0; Plant response rating, Morningglory (morningglory; [8]): 30; Plant response rating, Morningglory (morningglory; [9]): 10; Plant response rating, Morningglory (morningglory; [10]): 10; Plant response rating, Cocklebur (cocklebur; [8]): 10; Plant response rating, Cocklebur (cocklebur; [9]): 5; Plant response rating, Cocklebur (cocklebur; postemergence, 31 g ai/ha, scale 0 to 100): 5; Plant response rating, Cocklebur (cocklebur; [10]): 5; Plant response rating, Ragweed (common ragweed; [8]): 40; Plant response rating, Ragweed (common ragweed; [9]): 30; Plant response rating, Ragweed (common ragweed; [10]): 25
CCc1nn(C(C)C)nc1C(=O)Nc1cccc(C(=O)N(C)CC)c1 [Compound 386] | 30 | 100 | 100 | 25 | 60 | 85 | 85 | 100 | 100 | 100 | 55 | 100 | 100 | 0 | 30 | 5 | 65 | 75 | 80 | 80 | Plant response rating (0 = no effect, 100 = complete control), Kochia (kochia; 125 g ai/ha, preemergence): 100; Plant response rating (0 = no effect, 100 = complete control), Lambsquarters (lambsquarters; 125 g ai/ha, preemergence): 100; Plant response rating (0 = no effect, 100 = complete control), Morningglory (morningglory; 125 g ai/ha, preemergence): 95; Plant response rating (0 = no effect, 100 = complete control), Cocklebur (cocklebur; 125 g ai/ha, preemergence): 20; Plant response rating, Cocklebur (cocklebur; [4]): 70; Plant response rating (0 = no effect, 100 = complete control), Ragweed (common ragweed; 125 g ai/ha, preemergence): 98; Plant response rating, Ragweed (common ragweed; [3]): 100; Plant response rating, Ragweed (common ragweed; [4]): 100
CCN1N=C(C(C)(C)C)CC1C(=O)Nc1cc(C(=O)N2CC=CC2)ccc1F (racemic) [Compound 310] | 95 | 100 | 100 | 45 | 75 | 80 | 90 | 95 | 100 | 100 | 0 | 5 | 10 | 0 | 5 | 0 | 35 | 85 | 85 | 85 | Plant response rating, Kochia (kochia; [11]): 100; Plant response rating, Lambsquarters (lambsquarters; [11]): 100; Plant response rating, Morningglory (morningglory; [11]): 5; Plant response rating, Cocklebur (cocklebur; [11]): 0; Cocklebur plant response rating (cocklebur; Preemergence, 500 g ai/ha, scale 0 to 100, 0 no effect, 100 complete control): 30; Plant response rating, Ragweed (common ragweed; [3]): 50; Plant response rating, Ragweed (common ragweed; [4]): 80
